Tested on: PANC-1 complex spheroid growth, percent test/control
Assay: Anticancer human tumor PANC-1 cell line growth inhibition [Asc];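 also: spheroids exposed to agents for 7 days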;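 as to viability, T/C: percent viability relative to DMSO vehicle wells taken as 100%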
Conditions: for IC50: curve of first compound; for viability, T/C: stronger effect = lower value; active = viability on the fitted dose curve at most 10% of control; inactive = the rest
Outline: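 Stromal components (HUVEC and hMSC) are co-assembled with the cancer cells into multicellular spheroids. Drugs are then added singly or paired, at concentrations falling by half-log increments from a clinically achievable maximum, capped at 10 microM without known Cmax.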

[1] = second compound 0.0316 µM, first compound 0.0316 µM
[2] = second compound 0.0316 µM, first compound 0.1 µM
[3] = second compound 0.0316 µM, first compound 0.316 µM
[4] = second compound 0.0316 µM, first compound 1 µM
[5] = second compound 0.1 µM, first compound 0.0316 µM
[6] = second compound 0.1 µM, first compound 0.1 µM
[7] = second compound 0.1 µM, first compound 0.316 µM
[8] = second compound 0.1 µM, first compound 1 µM
[9] = second compound 0.316 µM, first compound 0.0316 µM
[10] = second compound 0.316 µM, first compound 0.1 µM
[11] = second compound 0.316 µM, first compound 0.316 µM
[12] = second compound 0.316 µM, first compound 1 µM
[13] = second compound 1 µM, first compound 0.0316 µM
[14] = second compound 1 µM, first compound 0.1 µM
[15] = second compound 1 µM, first compound 0.316 µM
[16] = second compound 1 µM, first compound 1 µM
[17] = second compound 3.16 µM, first compound 0.0316 µM
[18] = second compound 3.16 µM, first compound 0.1 µM
[19] = second compound 3.16 µM, first compound 0.316 µM
[20] = second compound 3.16 µM, first compound 1 µM
[21] = second compound 10 µM, first compound 0.0316 µM
[22] = second compound 10 µM, first compound 0.1 µM
[23] = second compound 10 µM, first compound 0.316 µM
[24] = second compound 10 µM, first compound 1 µM
[25] = second compound 0.0316 µM, first compound 3.16 µM
[26] = second compound 0.0316 µM, first compound 10 µM
[27] = second compound 0.1 µM, first compound 3.16 µM
[28] = second compound 0.1 µM, first compound 10 µM
[29] = second compound 0.316 µM, first compound 3.16 µM
[30] = second compound 0.316 µM, first compound 10 µM
[31] = second compound 1 µM, first compound 3.16 µM
[32] = second compound 1 µM, first compound 10 µM
[33] = second compound 3.16 µM, first compound 3.16 µM
[34] = second compound 3.16 µM, first compound 10 µM
[35] = second compound 10 µM, first compound 3.16 µM
[36] = second compound 10 µM, first compound 10 µM

CNC(C)C(=O)NC1CN(S(=O)(=O)c2cccc(S(=O)(=O)N3CCC4CCC(C(=O)NC(c5ccccc5)c5ccccc5)N4C(=O)C(NC(=O)C(C)NC)C3)c2)CCC2CCC(C(=O)NC(c3ccccc3)c3ccccc3)N2C1=O (stereo not drawn) + Cc1c(S(C)(=O)=O)c(-c2cc(F)cc(N3CCN(c4ccc(NS(=O)(=O)c5ccc(NC(CCN6CCC(C(=O)OCCCP(=O)(O)O)CC6)CSc6ccccc6)c(S(=O)(=O)C(F)(F)F)c5)cc4)CC3)c2)c(-c2ccc(Cl)cc2)n1C(C)C
> 1 µM: IC50 (second compound 0.0316 µM) | IC50 (second compound 0.1 µM) | IC50 (second compound 0.316 µM) | IC50 (second compound 1 µM) | IC50 (second compound 3.16 µM) | IC50 (second compound 10 µM)
inactive: viability, T/C (second compound 0.0316 µM, first compound 0.00316 µM) 100% | viability, T/C (second compound 0.0316 µM, first compound 0.01 µM) 92.3% | viability, T/C [1] 97.5% | viability, T/C [2] 94.9% | viability, T/C [3] 98.6% | viability, T/C [4] 91.8% | viability, T/C (second compound 0.1 µM, first compound 0.00316 µM) 96.6% | viability, T/C (second compound 0.1 µM, first compound 0.01 µM) 98.4% | viability, T/C [5] 105% | viability, T/C [6] 93.8% | viability, T/C [7] 98.6% | viability, T/C [8] 96.9% | viability, T/C (second compound 0.316 µM, first compound 0.00316 µM) 98.3% | viability, T/C (second compound 0.316 µM, first compound 0.01 µM) 113% | viability, T/C [9] 97.4% | viability, T/C [10] 101% | viability, T/C [11] 103% | viability, T/C [12] 91.9% | viability, T/C (second compound 1 µM, first compound 0.00316 µM) 101% | viability, T/C (second compound 1 µM, first compound 0.01 µM) 113% | viability, T/C [13] 105% | viability, T/C [14] 102% | viability, T/C [15] 109% | viability, T/C [16] 88.9% | viability, T/C (second compound 3.16 µM, first compound 0.00316 µM) 104% | viability, T/C (second compound 3.16 µM, first compound 0.01 µM) 104% | viability, T/C [17] 103% | viability, T/C [18] 94.9% | viability, T/C [19] 98.5% | viability, T/C [20] 90.7% | viability, T/C (second compound 10 µM, first compound 0.00316 µM) 173% | viability, T/C (second compound 10 µM, first compound 0.01 µM) 183% | viability, T/C [21] 173% | viability, T/C [22] 160% | viability, T/C [23] 185% | viability, T/C [24] 158%

C=C(F)C(=O)N1CCN(c2nc(OCC3CCCN3C)nc3c2CCN(c2cccc4cccc(Cl)c24)C3)CC1CC#N (stereo not drawn) + Cc1c(S(C)(=O)=O)c(-c2cc(F)cc(N3CCN(c4ccc(NS(=O)(=O)c5ccc(NC(CCN6CCC(C(=O)OCCCP(=O)(O)O)CC6)CSc6ccccc6)c(S(=O)(=O)C(F)(F)F)c5)cc4)CC3)c2)c(-c2ccc(Cl)cc2)n1C(C)C
5.43 µM: IC50 (second compound 0.316 µM)
5.24 µM: IC50 (second compound 1 µM)
5.88 µM: IC50 (second compound 10 µM)
5.83 µM: IC50 (second compound 0.0316 µM) | IC50 (second compound 0.1 µM)
inactive: viability, T/C [1] 94.6% | viability, T/C [2] 95.8% | viability, T/C [3] 106% | viability, T/C [4] 100% | viability, T/C [25] 92.4% | viability, T/C [26] 12.5% | viability, T/C [5] 97.4% | viability, T/C [6] 87.6% | viability, T/C [7] 113% | viability, T/C [8] 103% | viability, T/C [27] 98% | viability, T/C [9] 101% | viability, T/C [10] 101% | viability, T/C [11] 109% | viability, T/C [12] 103% | viability, T/C [29] 91.3% | viability, T/C [13] 97.8% | viability, T/C [14] 98.2% | viability, T/C [15] 117% | viability, T/C [16] 107% | viability, T/C [31] 88.1% | viability, T/C [17] 104% | viability, T/C [18] 113% | viability, T/C [19] 114% | viability, T/C [20] 114% | viability, T/C [33] 80% | viability, T/C [21] 181% | viability, T/C [22] 180% | viability, T/C [23] 189% | viability, T/C [24] 194% | viability, T/C [35] 108%
active: viability, T/C [28] 7.53% | viability, T/C [30] 3.26% | viability, T/C [32] 1.2% | viability, T/C [34] 4.62% | viability, T/C [36] 0.69%
5 µM: IC50 (second compound 3.16 µM)

C=CC(=O)N1CCN(c2nc(=O)n(-c3c(C)ccnc3C(C)C)c3nc(-c4c(O)cccc4F)c(F)cc23)C(C)C1 (stereo not drawn) + Cc1c(S(C)(=O)=O)c(-c2cc(F)cc(N3CCN(c4ccc(NS(=O)(=O)c5ccc(NC(CCN6CCC(C(=O)OCCCP(=O)(O)O)CC6)CSc6ccccc6)c(S(=O)(=O)C(F)(F)F)c5)cc4)CC3)c2)c(-c2ccc(Cl)cc2)n1C(C)C
inactive: viability, T/C [1] 98.5% | viability, T/C [2] 95.1% | viability, T/C [3] 93.7% | viability, T/C [4] 89.7% | viability, T/C [25] 98.5% | viability, T/C [26] 88.2% | viability, T/C [5] 99.3% | viability, T/C [6] 90.3% | viability, T/C [7] 105% | viability, T/C [8] 106% | viability, T/C [27] 88.8% | viability, T/C [28] 94.5% | viability, T/C [9] 107% | viability, T/C [10] 97% | viability, T/C [11] 105% | viability, T/C [12] 105% | viability, T/C [29] 98.4% | viability, T/C [30] 98% | viability, T/C [13] 96.2% | viability, T/C [14] 104% | viability, T/C [15] 107% | viability, T/C [16] 114% | viability, T/C [31] 95.6% | viability, T/C [32] 92.6% | viability, T/C [17] 107% | viability, T/C [18] 109% | viability, T/C [19] 104% | viability, T/C [20] 102% | viability, T/C [33] 109% | viability, T/C [34] 92.4% | viability, T/C [21] 166% | viability, T/C [22] 166% | viability, T/C [23] 162% | viability, T/C [24] 177% | viability, T/C [35] 175% | viability, T/C [36] 135%
> 10 µM: IC50 (second compound 0.0316 µM) | IC50 (second compound 0.1 µM) | IC50 (second compound 0.316 µM) | IC50 (second compound 1 µM) | IC50 (second compound 3.16 µM) | IC50 (second compound 10 µM)

C#Cc1c(F)ccc2cc(O)cc(-c3ncc4c(N5CC6CCC(C5)N6)nc(OCC56CCCN5CC(F)C6)nc4c3F)c12 (stereo not drawn) + Cc1c(S(C)(=O)=O)c(-c2cc(F)cc(N3CCN(c4ccc(NS(=O)(=O)c5ccc(NC(CCN6CCC(C(=O)OCCCP(=O)(O)O)CC6)CSc6ccccc6)c(S(=O)(=O)C(F)(F)F)c5)cc4)CC3)c2)c(-c2ccc(Cl)cc2)n1C(C)C
> 10 µM: IC50 (second compound 0.0316 µM) | IC50 (second compound 0.1 µM) | IC50 (second compound 0.316 µM) | IC50 (second compound 1 µM) | IC50 (second compound 3.16 µM) | IC50 (second compound 10 µM)
inactive: viability, T/C [1] 86.6% | viability, T/C [2] 84% | viability, T/C [3] 81.4% | viability, T/C [4] 87.2% | viability, T/C [25] 83.5% | viability, T/C [26] 72.6% | viability, T/C [5] 84.6% | viability, T/C [6] 80.2% | viability, T/C [7] 74.8% | viability, T/C [8] 80.9% | viability, T/C [27] 78% | viability, T/C [28] 75.3% | viability, T/C [9] 88.7% | viability, T/C [10] 77.5% | viability, T/C [11] 76.2% | viability, T/C [12] 74% | viability, T/C [29] 88.2% | viability, T/C [30] 69.8% | viability, T/C [13] 80.2% | viability, T/C [14] 75.6% | viability, T/C [15] 72.6% | viability, T/C [16] 67.4% | viability, T/C [31] 73.7% | viability, T/C [32] 55.3% | viability, T/C [17] 72.4% | viability, T/C [18] 62.9% | viability, T/C [19] 59.9% | viability, T/C [20] 60.1% | viability, T/C [33] 59% | viability, T/C [34] 56.8% | viability, T/C [21] 114% | viability, T/C [22] 103% | viability, T/C [23] 101% | viability, T/C [24] 85.5% | viability, T/C [35] 84.9% | viability, T/C [36] 67.9%
